Reference: patent US20180206498A1, “SUBSTITUTED HETEROARYL CARBOXYLIC ACID HYDRAZIDES OR SALTS THEREOF AND USE THEREOF TO INCREASE STRESS TOLERANCE IN PLANTS” (Bayer CropScience Aktiengesellschaft, priority 2015, published 2018)

System: Triticum aestivum
Assay: Drought stress in vivo analysis Part B, appearance vs stressed control plants in categories
Design: key: 0: no positive effect; +: slight positive effect; ++: clear positive effect; +++: strong positive effect
Conditions: spray 25 g/ha
Method: (§1) Seeds of monocotyledonous and dicotyledonous crop plants were sown in sandy loam in plastic pots, covered with soil or sand and cultivated in a greenhouse under good growth conditions. The test plants are treated at the early leaf stage (BBCH10-BBCH13). To assure uniform water supply before commencement of stress, the potted plants were supplied with water by dam irrigation prior to substance application. The inventive compounds were first formulated as wettable powders (WP) or dissolved in a solvent mixture. The further dilution was effected with water supplemented with 0.2% wetting agent (e.g. agrotin). The finished spray liquor was sprayed onto the green parts of the plant at an equivalent water application rate of 600 I/ha. Substance application was followed immediately by stress treatment of the plants. Drought Stress was Induced by Gradual Drying Out Under the Following Conditions: “Day”: 14 hours with illumination at […]-30° C. “Night”: 10 hours without illumination at 18-20° C. The duration of the respective stress phases was guided mainly by the condition of the stressed control plants. It was ended (by re-irrigating and transfer to a greenhouse with good growth conditions) as soon as irreversible damage was observed on the stressed control plants. The end of the stress phase was followed by an about 4-7-day recovery phase, during which the plants were once again kept under good growth conditions in a greenhouse. The duration of the recovery phase was guided mainly by when the trial plants had attained a state which enabled visual scoring of potential effects, and was therefore variable. Once this juncture had been reached, the appearance of the plants treated with test substances was recorded in comparison to the stressed control plants by the following categories: [table] In order to rule out any influence on the effects observed by any fungicidal or insecticidal action of the test compounds, it was additionally ensured that the tests proceeded without fungal infection or insect infestation. The values reported in tables B-1 and […] below are mean values of the results from at least three repeats. Effects of selected compounds of the general formula (I) under drought stress according to the following tables B-1 and B-2: BRSNS=Brassica napus ZEAMX=Zea mays TRZAS=Triticum aestivum

| Compound | Effect (TRZAS) |
| --- | --- |
| CN(C)N(Cc1ccc(F)cc1F)C(=O)c1c(C(F)(F)F)nn(C)c1Cl [Compound A1-15] | + |
| CN(C)N(Cc1ccccc1C#N)C(=O)c1c(C(F)(F)F)nn(C)c1F [Compound A2-61] | + |
| CN(C)N(Cc1cccc(Cl)c1Cl)C(=O)c1cn(C)nc1C(F)(F)F [Compound A4-4, N-(2,3-dichlorobenzyl)-N′,N′, 1-trimethyl-3-(trifluoromethyl)-1H-pyrazole-4-carbohydrazide] | + |
| CN(C)N(Cc1ccccc1C#N)C(=O)c1cn(C)nc1C(F)(F)F [Compound A4-61] | + |
| CN(C)N(Cc1ccccc1Cl)C(=O)c1cn(C)nc1C(F)F [Compound A8-1] | + |
| CN(C(=O)OC(C)(C)C)N(Cc1ccc(Cl)cc1Cl)C(=O)c1c(C(F)F)nn(C)c1F [Compound A13-5] | + |
| CN(C(=O)OC(C)(C)C)N(Cc1ccccc1Cl)C(=O)c1c(C(F)F)nn(C)c1Cl [Compound A14-1] | + |
| CN(C(=O)OC(C)(C)C)N(CCc1ccc(Cl)cc1Cl)C(=O)c1c(C(F)F)nn(C)c1Cl [Compound A14-615] | + |
| Cn1nc(C(F)F)c(C(=O)N(Cc2ccccc2C#N)N2CCCC2)c1Cl [Compound A18-61] | + |
| CN(C)N(Cc1ccccn1)C(=O)c1ccsc1C(F)F [Compound B3-21] | + |
| CCc1sccc1C(=O)N(Cc1ccccc1Cl)N(C)C [Compound B4-1] | + |
| CCc1sccc1C(=O)N(Cc1ccccn1)N(C)C [Compound B4-21] | + |
| CCc1sccc1C(=O)N(Cc1ccccc1C#N)N(C)C [Compound B4-61] | + |
| Cc1nc(-c2cccnc2)sc1C(=O)N(Cc1ccccc1C#N)N(C)C [Compound D1-61] | + |
| Cc1nc(-c2cccnc2)sc1C(=O)N(Cc1ccccc1C#N)N1CCCC1 [Compound D2-61] | + |
| CN(C)N(Cc1cccc(Cl)c1Cl)C(=O)c1sc(Cl)nc1Cl [Compound D6-4] | + |
| CN(C)N(Cc1ccccc1F)C(=O)c1sc(Cl)nc1Cl [Compound D6-11] | + |
| CN(C)N(Cc1ccccc1C#N)C(=O)c1sc(Cl)nc1Cl [Compound D6-61] | + |
| CN(C)N(Cc1ccc(Cl)nc1)C(=O)c1snc(Cl)c1Cl [Compound E1-94] | + |
| CC(Cc1ccccc1)N(C(=O)c1snc(Cl)c1Cl)N(C)C (centres unmarked) [Compound E1-351] | + |
| N#Cc1ccccc1CN(C(=O)c1snc(Cl)c1Cl)N1CCCC1 [Compound E5-61] | + |
| CC(C)c1nnsc1C(=O)N(Cc1ccc(Cl)nc1)N(C)C [Compound F2-94] | + |
| CN(C)N(Cc1ccccc1Cl)C(=O)c1snc(N)c1Cl [Compound G1-1] | + |
| CN(C)N(Cc1ccccn1)C(=O)c1cc(OCc2ccccc2)ns1 [Compound G10-21] | + |
| O=C(c1cnsn1)N(Cc1ccc(F)cc1F)N1CCCC1 [Compound H2-15] | ++ |

Same assay, conditions: spray 250 g/ha

| Compound | Effect (TRZAS) |
| --- | --- |
| CCn1nc(C(F)F)c(C(=O)N(Cc2ccccc2C#N)N(C)C)c1F [Compound A7-61] | ++ |
| Cn1cc(C(=O)N(Cc2ccccc2C#N)N2CCCC2)c(C(F)F)n1 [Compound A20-61] | + |
| CNN(Cc1ccccc1Cl)C(=O)c1c(C(F)F)nn(C)c1F [Compound A22-1] | + |
| CCn1nc(C(F)F)c(C(=O)N(Cc2nccc(Cl)c2Cl)N2CCCC2)c1F [Compound A24-40] | + |
| CCn1nc(C(F)F)c(C(=O)N(Cc2cccnc2C#N)N2CCCC2)c1F [Compound A24-679] | + |
| CN(C)N(Cc1ccccc1C#N)C(=O)c1ccsc1C(F)F [Compound B3-61, N-(2-Cyanobenzyl)-2-(difluoromethyl)-N′,N′-dimethylthiophene-3-carbohydrazide] | + |
| Cc1occc1C(=O)N(Cc1ccccc1C#N)N(C)C [Compound C3-61] | + |
| Cc1nc(-c2cccnc2)sc1C(=O)N(Cc1ccccc1Cl)N(C)C [Compound D1-1] | + |
| Cc1nc(-c2cccnc2)sc1C(=O)N(Cc1cccc(Cl)c1Cl)N(C)C [Compound D1-4] | + |
| CN(C)N(Cc1ccccn1)C(=O)c1sc(Cl)nc1Cl [Compound D6-21] | + |
| CN(C)N(Cc1ncc(C(F)(F)F)cc1Cl)C(=O)c1sc(Cl)nc1Cl [Compound D6-36] | + |
| CN(C)N(Cc1ccc(Cl)nc1)C(=O)c1sc(Cl)nc1Cl [Compound D6-94] | + |
| CN(C)N(Cc1ccccc1Cl)C(=O)c1snc(Cl)c1Cl [Compound E1-1] | + |
| CN(C)N(Cc1ccc(Cl)cc1)C(=O)c1snc(Cl)c1Cl [Compound E1-3] | + |
| CN(C)N(Cc1ccccc1C#N)C(=O)c1snc(Cl)c1Cl [Compound E1-61] | + |
| Cc1nnsc1C(=O)N(Cc1cccc(Cl)c1Cl)N(C)C [Compound F1-4] | + |
| Cc1nnsc1C(=O)N(Cc1ccccc1C#N)N(C)C [Compound F1-61] | + |
| CC(C)c1nnsc1C(=O)N(Cc1ccccc1Cl)N(C)C [Compound F2-1, N-(2-Chlorobenzyl)-4-isopropyl-N′,N′-dimethyl-1,2,3-thiadiazole-5-carbohydrazide] | + |
| CN(C)N(Cc1ncc(C(F)(F)F)cc1Cl)C(=O)c1ccns1 [Compound G8-36] | ++ |
| O=C(c1ccns1)N(Cc1ccc(F)cc1F)N1CCCC1 [Compound G9-15] | + |
| O=C(c1ccns1)N(Cc1ccc(Cl)nc1)N1CCCC1 [Compound G9-94] | ++ |
| CN(C)N(Cc1ccccc1F)C(=O)c1cc(OCc2ccccc2)ns1 [Compound G10-11] | + |
| CN(C)N(Cc1ncc(C(F)(F)F)cc1Cl)C(=O)c1cc(OCc2ccccc2)ns1 [Compound G10-36] | ++ |
| CN(C)N(Cc1ccccc1C#N)C(=O)c1cc(OCc2ccccc2)ns1 [Compound G10-61] | + |
| Cc1c(OCc2ccccc2)nsc1C(=O)N(Cc1ncc(C(F)(F)F)cc1Cl)N(C)C [Compound G11-36] | ++ |
| O=C(c1cnsn1)N(Cc1ccccc1Cl)N1CCCC1 [Compound H2-1] | + |
| O=C(c1cnsn1)N(Cc1ccc(Cl)cc1)N1CCCC1 [Compound H2-3] | + |
| N#Cc1ccccc1CN(C(=O)c1cnsn1)N1CCCC1 [Compound H2-61] | + |

System: Brassica napus
Assay: as above
Design: key: 0: no positive effect; +: slight positive effect; ++: clear positive effect; +++: strong positive effect
Conditions: spray 25 g/ha
Method: as §1

| Compound | Effect (BRSNS) |
| --- | --- |
| CN(C)N(Cc1ccc(F)cc1F)C(=O)c1c(C(F)(F)F)nn(C)c1Cl [Compound A1-15] | ++ |
| CN(C)N(Cc1ccccc1C#N)C(=O)c1c(C(F)(F)F)nn(C)c1F [Compound A2-61] | ++ |
| Cc1nc(-c2cccnc2)sc1C(=O)N(Cc1ccccc1Cl)N(C)C [Compound D1-1] | + |
| Cc1nc(-c2cccnc2)sc1C(=O)N(Cc1ccccn1)N1CCCC1 [Compound D2-21] | + |
| CN(C)N(Cc1ccccc1Cl)C(=O)c1sc(Cl)nc1Cl [Compound D6-1] | + |
| CN(C)N(Cc1cccc(Cl)c1Cl)C(=O)c1sc(Cl)nc1Cl [Compound D6-4] | + |
| CN(C)N(Cc1cccc(Cl)c1)C(=O)c1snc(N)c1Cl [Compound G1-2] | + |
| CN(C)N(Cc1ccccc1F)C(=O)c1ccns1 [Compound G8-11] | + |
| CN(C)N(Cc1ccccn1)C(=O)c1cnsn1 [Compound H1-21] | + |

Same assay, conditions: spray 250 g/ha

| Compound | Effect (BRSNS) |
| --- | --- |
| CN(C(=O)OC(C)(C)C)N(Cc1ccccc1Cl)C(=O)c1c(C(F)F)nn(C)c1F [Compound A13-1] | ++ |
| Cn1cc(C(=O)N(Cc2ccccc2Cl)N2CCCC2)c(C(F)F)n1 [Compound A20-1] | + |
| CNN(Cc1ccccc1Cl)C(=O)c1c(C(F)F)nn(C)c1F [Compound A22-1] | + |
| CCn1nc(C(F)F)c(C(=O)N(Cc2nccc(Cl)c2Cl)N2CCCC2)c1F [Compound A24-40] | + |
| CN(C)N(Cc1nccc(Cl)c1Cl)C(=O)c1ccsc1C(F)F [Compound B3-40] | + |
| CN(C)N(Cc1ccccc1F)C(=O)c1sc(Cl)nc1Cl [Compound D6-11] | + |
| CN(C)N(Cc1ccccc1C#N)C(=O)c1sc(Cl)nc1Cl [Compound D6-61] | + |
| CN(C)N(Cc1cccc(Cl)c1Cl)C(=O)c1snc(Cl)c1Cl [Compound E1-4] | + |
| CCN(CC)N(Cc1ccccc1C#N)C(=O)c1snc(Cl)c1Cl [Compound E2-61] | + |
| Cc1nnsc1C(=O)N(Cc1cccc(Cl)c1Cl)N(C)C [Compound F1-4] | + |
| Cc1nnsc1C(=O)N(Cc1ccc(Cl)nc1)N(C)C [Compound F1-94] | + |
| CC(C)c1nnsc1C(=O)N(Cc1cccc(Cl)c1Cl)N(C)C [Compound F2-4] | + |
| CC(C)c1nnsc1C(=O)N(Cc1nccc(Cl)c1Cl)N(C)C [Compound F2-40] | + |
| CN(C)N(Cc1cccc(Cl)c1Cl)C(=O)c1cc(OCc2ccccc2)ns1 [Compound G10-4] | + |
| O=C(c1cnsn1)N(Cc1ncc(C(F)(F)F)cc1Cl)N1CCCC1 [Compound H2-36] | ++ |
